Data: patent publication US20040019070A1, “Pyrrole-condensed morphinoid derivatives” (priority 2000, published 2004)

Assays:
[1] = target: T1, human delta opioid receptor (Homo sapiens, UniProt P41143); experiment: radioligand binding assay, [3H]-DADLE, cloned human delta opioid receptor in CHO cells
T1 construct: expressed in transfected cells; membranes prepared
Protocol: The activity of the compounds of the present invention as selective delta ligands is determined in radioligand binding assays as described below.
(§1) The activity of the compounds of the present invention as selective delta ligands is determined in radioligand binding assays using cloned human delta, mu and kappa opioid receptors stably expressed in cell lines as described below.
(§2) CHO cells were subjected to stable transfection with cDNA encoding the human delta and mu opioid receptors. Clones were grown in suspension culture in serum free media. Selection was performed by growth in the absence of nucleotides.
(§3) Membranes were prepared as previously described (J. Med. Chem. 1997, 40, 3192 ). The binding of the preferential delta ligand [^3H]-[D-Ala^2,D-Leu^5]-enkephalin (DADLE) was evaluated at its KD concentration (0.7 nM). The binding of the mu ligand [^3H]-DAMGO (Eur. J. Pharmacol., 1989, 166, 213) and of the kappa ligand [^3H]-U69593 (Excerpta Medica, 1990, 211) were carried out at 0.5 nM. Non specific binding was determined in the presence of 10 uM of naloxone. Binding data were expressed as percentage of inhibition and fitted the following equation: f(x)=100·X/(IC50+X) where X is the cold drug concentration value. The IC50 values obtained were used to calculate the inhibitory constants (Ki) accordingly to the Cheng and Prusoff relation (Biochem. Pharmacol., 1973, 22, 3099).

[2] = target: T2, human mu opioid receptor (Homo sapiens, UniProt P35372); experiment: radioligand binding assay, [3H]-DAMGO, cloned human mu opioid receptor in CHO cells; details: ratio of Ki at mu ([3H]-DAMGO 0.5 nM) to Ki at delta
T2 construct: expressed in transfected cells; membranes prepared
T2 sequence (P35372 whole entry): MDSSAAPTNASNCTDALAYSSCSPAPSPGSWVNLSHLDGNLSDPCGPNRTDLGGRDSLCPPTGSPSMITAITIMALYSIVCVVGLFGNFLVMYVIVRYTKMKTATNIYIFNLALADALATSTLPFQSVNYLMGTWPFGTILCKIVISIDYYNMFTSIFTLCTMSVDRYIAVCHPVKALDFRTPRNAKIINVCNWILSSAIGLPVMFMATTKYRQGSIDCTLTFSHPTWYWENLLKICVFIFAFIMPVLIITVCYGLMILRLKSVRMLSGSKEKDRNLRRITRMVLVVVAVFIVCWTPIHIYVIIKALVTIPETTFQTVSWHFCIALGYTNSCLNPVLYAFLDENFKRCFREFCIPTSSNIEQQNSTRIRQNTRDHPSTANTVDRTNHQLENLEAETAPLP
Protocol: as §1, §2, §3

T1 sequence (P41143 whole entry): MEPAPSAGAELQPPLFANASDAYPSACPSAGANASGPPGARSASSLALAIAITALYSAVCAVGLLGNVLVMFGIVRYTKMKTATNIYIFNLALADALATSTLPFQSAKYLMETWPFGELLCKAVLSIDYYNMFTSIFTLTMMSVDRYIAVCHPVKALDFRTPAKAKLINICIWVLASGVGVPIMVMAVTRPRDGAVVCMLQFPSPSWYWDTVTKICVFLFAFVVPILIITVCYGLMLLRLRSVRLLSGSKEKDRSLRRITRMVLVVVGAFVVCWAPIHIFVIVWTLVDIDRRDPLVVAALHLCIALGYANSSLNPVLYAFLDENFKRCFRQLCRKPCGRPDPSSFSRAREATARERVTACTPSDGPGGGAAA

COc1ccc2c3c1O[C@H]1c4[nH]c(C(=O)N5C(C)(C)CCCC5(C)C)c(C)c4C[C@H]4[C@@H](C2)N(C)CC[C@]314 [Example 1] was tested. Which Ki [1] did it give?
The Ki was 0.3 nM.

And the “Ki mu/Ki delta” value [2]?
Its value is 267.

What does the source list for COc1ccc2c3c1O[C@H]1c4[nH]c(C(=O)N5CCC(C(=O)c6ccccc6)CC5)c(C)c4C[C@H]4[C@@H](C2)N(C)CC[C@]314 [Example 6]?
Ki [1]: 1.4 nM; Ki mu/Ki delta [2]: 220
